Test results reported in patent US20100015174A1, “METHOD TO CONTROL DENGUE VIRUSES IN HUMANS BY PICOLINIC ACID AND DERIVATIVES THEREOF” (priority 2008, published 2010).
Values after ≈ are worked out from the molar mass of the structure shown. Values joined by “and” are separate entries in the source; they are usually repeats but may differ in a detail not shown here. Equal values may be shown once. Read-outs that look alike come from different tables or passages of the source.

Tests used:
HCV replicon = HCV replicon (qRTCPCR/iCycler) in Ava.5 cell line; type: cell-based, Human Hepatitis C Virus; conditions: Hepatitis C virus, Ava5, 24 h, read-out: inhibition of HCV replicon
Experimental: (§1) Here we determine the effects of Picolinic acid and Fusaric Acid on HCV replicon cell lines. The HCV replicons (qRTCPCR/iCycler) were contained in the Ava.5 cell line tested. Normalization by OD and serial dilutions were done in the untreated cell line. The experimental design was as follows: cells were grown in 12 well cell culture plates; the compounds interaction was done for 24 hours; at extraction, cell confluence was 75%; and RNA was extracted using Qiagen Rneasy extraction kit.

Sindbis replicon = Sindbis replicon (qRTCPCR/iCycler) in Huh7B/Sindbis cells; type: cell-based, Sindbis virus; conditions: for inhibition of Sindbis replicon: at all concentrations tested
Experimental: as §1, with “Sindbis” for “HCV”, “in Huh7B/Sindbis cells.” for “cell lines.”, “replicons” for “replicons (qRTCPCR/iCycler)”, “studied by qRTCPCR/iCycler.” for “contained in the Ava.5 cell line tested.”

VZV Ellen strain = assay: VZV virus yield reduction assay in HEL-299 cells (real-time PCR); type: cell-based, Varicella-Zoster Virus; conditions: for Total VZV DNA copies (mean) / Total VZV DNA, % of control: 3 days
CMV AD 169 strain = assay: CMV replication in HEL-299 cells (virus titration); type: cell-based, Cytomegalovirus; conditions: Human betaherpesvirus 5, 72 h, 3 days, read-out: EC50 for inhibition of CMV replication
Experimental: CMV AD 169 strain (ATCC) was used in the experiments. A CMV susceptible cell line, human fibroblast cells HEL-299 (ATCC), was used in the plaque reduction assays.
90% confluent HEL-299 cells were washed and then Infected with CMV AD169 at 0.5 moi for 2 h at 37° C. Following removal of viral inoculums, the Infected cells were washed and exposed to different concentrations of PA (final concentrations: 0, 10, 100, 250, 500, and 1000 ug/mL) or FA (final concentrations: 0, 1, 10, 30, 60, and 100 ug/mL for 3 days. The culture medium was collected for titration of released virions and the cells were harvested for titration of intracellular virions.
90% confluent HEL-299 cells in 24 well plates were Infected with 200 uL of CMV dilutions at 37° C. for 2 h. Following removal of virus inoculums, the infected cells were washed with PBS and overlaid with 0.5% methylcellulose in culture medium. We then treated CMV Infected cells for 3 days at 37° C. with different concentrations of PA and FA. The culture medium was collected for titration of released virus and the cells were harvested for titration of intracellular virus.

Ava.5 cell line = assay: Cytotoxicity by OD in HCV replicon cells; type: cell-based
Experimental: as §1

Huh7B/Sindbis cells = assay: Cytotoxicity by OD in Sindbis replicon cells; type: cell-based; conditions: concentrations tested
Experimental: as §1, with “Sindbis” for “HCV”, “in Huh7B/Sindbis cells.” for “cell lines.”, “replicons” for “replicons (qRTCPCR/iCycler)”, “studied by qRTCPCR/iCycler.” for “contained in the Ava.5 cell line tested.”

HepG2.2.15 cells = assay: Toxicity to HepG2.2.15 cells (9-day treatment); type: cell-based
Experimental: Here we evaluate the antiviral efficacy of picolinic acid and fusaric acid against human hepatitis B virus (HBV). HepG2.2.15 cells, a cell line that was stably transfected with HBV genome was used to study the antiviral effects of PA and FA against HBV. HepG2.2.15 cells were cultured under standard conditions. HepG2.2.15 cells were seeded in a 96-well plate at 2×10^4 cells/well and grown for 24 hours. The medium was replaced with 100 uL of medium containing PA at increasing concentrations (0, 10, 100, 250, and 500 ug/mL). The concentrations of FU used were 0, 1, 10, 30, 60, and 100 ug/mL. The cells were incubated at 37° C. for 9 days. The control medium and the medium containing the antivirals were changed every 24 hours. At day 9, the culture medium containing the released HBV virions was collected, the cells washed with PBS, and lysed with lysis buffer. All samples were stored at −70° C. until analyzed.

HEL cells = assay: Toxicity to HEL cells

Structure (SMILES): CCCCc1ccc(C(=O)O)nc1 [FA, fusaric acid]
- inhibition at 100 µg/mL (HCV replicon): ~60%
- Sindbis replicon % CTRL (Sindbis replicon; FA 5, 24 hours): 14.0 % CTRL
- Sindbis replicon AVE (Sindbis replicon; FA 5, 24 hours): 22.7
- Sindbis replicon, single reading (Sindbis replicon; FA 5, 24 hours): 22.7 and 23.3 and 23.1 and 21.7
- Sindbis replicon % CTRL (Sindbis replicon; FA 25, 24 hours): 11.6 % CTRL
- Sindbis replicon AVE (Sindbis replicon; FA 25, 24 hours): 22.9
- Sindbis replicon, single reading (Sindbis replicon; FA 25, 24 hours): 23.0 and 22.7 and 22.4 and 23.5
- Sindbis replicon % CTRL (Sindbis replicon; FA 50, 24 hours): 9.3 % CTRL
- Sindbis replicon AVE (Sindbis replicon; FA 50, 24 hours): 23.3
- Sindbis replicon, single reading (Sindbis replicon; FA 50, 24 hours): 22.8 and 23.4 and 22.7 and 24.2
- Sindbis replicon % CTRL (Sindbis replicon; FA 100, 24 hours): 8.8 % CTRL
- Sindbis replicon AVE (Sindbis replicon; FA 100, 24 hours): 23.5
- Sindbis replicon, single reading (Sindbis replicon; FA 100, 24 hours): 22.2 and 23.8 and 24.0 and 23.9
- inhibition of Sindbis replicon (Sindbis replicon): > 85%
- Total VZV DNA copies (mean) (VZV Ellen strain; FA 1 μg/ml): 753340 copies
- Total VZV DNA, % of control (VZV Ellen strain; FA 1 μg/ml): 77.7 % of control
- Total VZV DNA copies (mean) (VZV Ellen strain; FA 10 μg/ml): 685520 copies
- Total VZV DNA, % of control (VZV Ellen strain; FA 10 μg/ml): 70.7 % of control
- Total VZV DNA copies (mean) (VZV Ellen strain; FA 30 μg/ml): 103405 copies
- Total VZV DNA, % of control (VZV Ellen strain; FA 30 μg/ml): 10.7 % of control
- Total VZV DNA copies (mean) (VZV Ellen strain; FA 60 μg/ml): 66230 copies
- Total VZV DNA, % of control (VZV Ellen strain; FA 60 μg/ml): 6.8 % of control
- EC50 (VZV Ellen strain; Human alphaherpesvirus 3, HEL 299, read-out: EC50 against VZV replication, 50% reduction of total VZV DNA copies, HEL-299 cells): ~14 µg/mL (≈ 78.1 µM)
- EC90 (VZV Ellen strain; Human alphaherpesvirus 3, HEL 299, read-out: EC90 against VZV replication, total VZV DNA copies, HEL-299 cells): ~41 µg/mL (≈ 229 µM)
- EC50 (CMV AD 169 strain): ~60 µg/mL (≈ 335 µM)
- overt cytotoxicity by OD (Ava.5 cell line; 100 ug/mL): no overt cytotoxicity
- overt cytotoxicity by OD (Huh7B/Sindbis cells): No overt cytotoxicity
- toxicity to HepG2.2.15 cells (HepG2.2.15 cells; 100 ug/ml): 100 ug/ml was toxic to HepG2.2.15 cells.
- toxicity to HEL cells (HEL cells; 60 ug/mL): no significant toxicity

Structure (SMILES): O=C(O)c1ccccn1 [PA, picolinic acid]
- inhibition at 250 µg/mL (HCV replicon): ~60%
- Sindbis replicon % CTRL (Sindbis replicon; PA 100, 24 hours): 6.5 % CTRL
- Sindbis replicon AVE (Sindbis replicon; PA 100, 24 hours): 23.7
- Sindbis replicon, single reading (Sindbis replicon; PA 100, 24 hours): 24.1 and 23.7 and 23.5 and 23.6
- Sindbis replicon % CTRL (Sindbis replicon; PA 300, 24 hours): 11.3 % CTRL
- Sindbis replicon AVE (Sindbis replicon; PA 300, 24 hours): 23.3
- Sindbis replicon, single reading (Sindbis replicon; PA 300, 24 hours): 24.3 and 23.7 and 21.6
- Sindbis replicon % CTRL (Sindbis replicon; PA 400, 24 hours): 6.7 % CTRL
- Sindbis replicon AVE (Sindbis replicon; PA 400, 24 hours): 23.7
- Sindbis replicon, single reading (Sindbis replicon; PA 400, 24 hours): 24.0 and 23.5 and 23.2 and 24.3
- inhibition of Sindbis replicon (Sindbis replicon): greater than 90%
- Sindbis replicon % CTRL (Sindbis replicon; column PA 200, 24 hours): 6.5 % CTRL
- Sindbis replicon AVE (Sindbis replicon; column PA 200, 24 hours): 23.8
- Sindbis replicon, single reading (Sindbis replicon; column PA 200, 24 hours): 24.1 and 22.9 and 24.2
- EC50 (VZV Ellen strain; Human alphaherpesvirus 3, 50% reduction of total VZV DNA copies, HEL-299 cells, read-out: EC50 against VZV replication): ~89 µg/mL (≈ 723 µM)
- EC90 (VZV Ellen strain; Human alphaherpesvirus 3, total VZV DNA copies, HEL-299 cells, read-out: EC90 against VZV replication): ~505 µg/mL (≈ 4100 µM)
- EC50 (CMV AD 169 strain): ~230 µg/mL (≈ 1870 µM)
- overt cytotoxicity by OD (Ava.5 cell line; 250 ug/mL): no overt cytotoxicity
- overt cytotoxicity by OD (Huh7B/Sindbis cells): no overt cytotoxicity
- toxicity to HepG2.2.15 cells (HepG2.2.15 cells; 500 ug/ml): 500 ug/ml was slightly toxic to HepG2.2.15 cells.
- toxicity to HEL cells (HEL cells; 500 ug/mL): no significant toxicity
